{"source": "patent US20020022659A1", "about": "“Crystalline and salt forms of an HIV protease inhibitor” (priority 2000, published 2002)", "key": {"HIV protease": {"molecular_target": "HIV protease (Human immunodeficiency virus type 1 group M subtype B, UniProt P04585)", "assay": "HIV protease inhibition (stated as tested, no method given)", "type": "biochemical"}, "[1]": {"assay": "Polymorphic relationship of the mono-methane sulfonate forms (relative stability)", "type": "physicochemical", "conditions": "anhydrous monotropic polymorphs of the mono-methane sulfonate; between 20° C. and 206° C.", "text": "Form I and Form II are anhydrous monotropic polymorphs. […] Form II, the higher melting form, can be formed directly from crystallization as described above, while Form I can be synthesized using ethyl acetate followed by drying. However, the crystal packing of the ethyl acetate solvate and Form I are distinct from each other confirming that Form I is an actual anhydrous form."}, "HIV-1 (RF)": {"tested_on": "HIV-1 (RF)", "assay": "HIV RNA assay, microplate based compound evaluation in HIV-1 infected MT-2 cells", "type": "cell-based", "conditions": "Human immunodeficiency virus 1, MT2, 72 h; HIV-1 (RF) infected MT-2 cells, 3 days of culture; virus dilutions selected to give this value (inoculum standardisation); read-out: IC90 value (concentration of compound required to reduce the HIV RNA level by 90%)", "procedure": "DNA Plasmids and in vitro RNA Transcripts:\nPlasmid pDAB 72 containing both gag and pol sequences of BH10 (bp 113-1816) cloned into PTZ 19R was prepared according to Erickson-Viitanen et al. AIDS Research and Human Retroviruses 1989, 5, 577. The plasmid was linearized with Bam HI prior to the generation of in vitro RNA transcripts using the Riboprobe Gemini system II kit (Promega) with T7 RNA polymerase. Synthesized RNA was purified by treatment with RNase free DNAse (Promega), phenol-chloroform extraction, and ethanol precipitation. RNA transcripts were dissolved in water, and stored at −70° C. The concentration of RNA was determined from the A260.\nBiotinylated capture probes were purified by HPLC after synthesis on an Applied Biosystems (Foster City, Calif.) DNA synthesizer by addition of biotin to the 5′ terminal end of the oligonucleotide, using the biotin-phosphoramidite reagent of Cocuzza, Tet. Lett. 1989, 30, 6287. […]\nMT-2 and MT-4 cells were maintained in RPMI 1640 supplemented with 5% fetal calf serum (FCS) for MT-2 cells or 10% FCS for MT-4 cells, 2 mM L-glutamine and 50 μg/mL gentamycin, all from Gibco. […] Infectious titers of HIV-1(RF) stocks were 1-3×10^7 PFU (plaque forming units)/mL as measured by plaque assay on MT-2 cells (see below). […]"}}}
{"smiles": "CC(C)CN(C[C@@H](O)[C@H](Cc1ccccc1)NC(=O)[C@@H](NC(=O)CNCc1cccc(F)c1)C(C)(C)C)S(=O)(=O)c1cccc(N)c1", "note": "[Compound A]", "values": [{"measurement": "HIV protease inhibitor activity", "setting": "HIV protease", "result": "potent HIV protease inhibitor"}]}
{"smiles": "CC(C)CN(C[C@@H](O)[C@H](Cc1ccccc1)NC(=O)[C@@H](NC(=O)CNCc1cccc(F)c1)C(C)(C)C)S(=O)(=O)c1cccc(N)c1", "note": "[Form II]", "values": [{"measurement": "Relative stability of polymorphs", "setting": "[1]", "result": "more stable than Form I"}]}
{"smiles": "Nc1ccn([C@H]2CC[C@@H](CO)O2)c(=O)n1", "note": "[ddC, dideoxycytidine]", "values": [{"measurement": "IC90", "setting": "HIV-1 (RF)", "result": 0.2, "unit": "µg/mL"}]}
